These results are taken from patent publication US12208080B2, “Compositions and methods for modulation of extracellular vesicle release and treatment of neurological disorders” (GEORGE MASON RESEARCH FOUNDATION, INC., priority 2018, dated 2025).

Assay [1] has as its system HIV-1 89.6 infected 3D neurospheres. In words: RT-qPCR of viral RNA transcripts in infected 3D neurospheres. It counts as cell-based. The protocol:
FIGS. 22A-22D are graphs, gels, schematics, and images showing cannabidiol lowers viral transcripts in 3D neurospheres. A) Differential workflow of 3D neurospheres. B) Phase contrast microscopic images of three 3D neurospheres taken where scale bar=100 um. D) 3D neurospheres were treated±89.6 viral strain±cART (10 μM; Tenofovir, Emtricitabine, Lamuvidine, and Indinavir)±CBD titration (5 and 10 μM) and incubated for 7 days. RNA was isolated from the 3D neurospheres and supernatants, followed by RT-qPCR analysis for viral RNA transcripts TAR, TAR-gag, env. Student's t-test was used for statistical analysis, where *p-value≤0.05; **p-value≤0.01, ***p-value≤0.001.
Neural Progenitor Cells (NPCs; Cat: ACS-5003; ATCC) were grown using STEMdiff™ Neural Progenitor Medium (STEMCELL Technologies™) and differentiated into 3D neurospheres (1×10^5 cells/well) using DMEM:F12 (Cat: 30-2006; ATCC)+Neural Progenitor Cell Dopaminergic Differentiation Kit (Cat: ACS-3004; ATCC) for an incubation period of 14 d. Inverted microscopy using Zen imaging software (Zeiss) was used to develop phase contrast images. Neurospheres were infected with HIV-1 89.6 dual-tropic strain (MOI: 10) and 10 μL of Infectin™ (Virongy, LLC) with a total volume of 200 μL, followed by 48 h incubation period. Neurospheres were then gently washed with 1×PBS±treated twice with 10 μM cocktail (Lamivudine, Tenofovir, Emtricitabine, Indinavir)±treatment (every other day) with a titration of CBD (5 and 10 μM) for a seven-day incubation period. Neurospheres were lysed in 100 μL lysis buffer and total lysates were run on a 4-20% Tris-Glycine SDS-PAGE, followed by western blot assessment. For RT-qPCR analysis, RNA was isolated from neurospheres, followed by RT-qPCR analysis.
Next, the levels of intracellular viral RNA transcripts were assessed to determine the effects of CBD treatment on HIV-1 infected neurospheres. Prior to these experiments, the expression of relevant receptors in neurospheres were confirmed including Cannabinoid receptors CB1 and CB2, as well as the serotonin receptor 5-HT1A and the Vanilloid receptor which have been previously found to bind cannabinoids (FIG. 24). We then performed RT-qPCR analysis to quantify the expression of TAR, gag, and env.
A general note: Quantitative PCR measures a nucleic acid by following its amplification.

For assay [2], the system named is HIV-1 infected monocytes (U1). Kind of assay: Western blot/densitometry of intracellular viral and ESCRT proteins in U1 cells. It counts as cell-based. The protocol:
FIGS. 15A-15C are graphs and gels showing cannabidiols lower intracellular viral transcription and downstream viral products. U1 cells (1×10^6) were treated with a titration of CBD (1, 5, 10 μM) and THC (1, 5, 10 μg/mL) every day for 5 days. A) Intracellular RNA was isolated and analyzed through RT-qPCR for HIV-1 viral transcripts TAR and env. Each bar represents an average of three independent replicates. B) U1 cells (2×10^6) were treated with a titration of CBD (1, 5, 10 μM) every day for 5 days. Cells pellets were lysed, run through SDS-PAGE, and western blotted for (p-)/NF-κB, autophagosomal markers (p63, LC3), EV biogenesis marker VPS4, viral markers (gp120, Nef, p24), and Actin. C) U1 cells (5×10^6) were treated±CBD (10 μM) and Flavopiridol hydrochloride (50 nM; indicated as Flavo) and incubated for the following time points: 0 minutes, 2 hours and 6 hours. Cells were cross-linked with 1% formaldehyde solution and ChIP-ed for IgG and Pol II. ChIP DNA samples were analyzed via qPCR for TAR and env. Student's t-test was used for statistical analysis, where *p-value≤0.05; **p-value≤0.01, ***p-value≤0.001.
FIGS. 16A-16E are graphs showing normalized densitometry analysis of CBD lowering intracellular […] in HIV-1 infected monocytes. (A) Nef, (B) Pr55, (C) p24, (D) VPS4, and (E) CHMP6 densitometry counts were performed on the Western blot data from FIG. 4B, all of which were normalized to Actin levels.
Laemmli buffer was added to sample cell lysates (10-20 μg) or NT80/82 pellets. Lysates were heated at 95° C. for 3 min and 15 μL of sample was loaded onto a 4-20% Tris/glycine gel (Invitrogen). When analyzing NT80/82 pellets, samples were heated at 95° C. for 3 min, vortexed, and then heated two additional times to release captured material from NT80/82 beads. Following the release of captured cargo, the total sample was then loaded on to a 4-20% Tris-Glycine gel (Invitrogen). Gels were run at 100 V and transferred onto Immobilon PVDF membranes (Millipore) at 50 mA overnight. Membranes were blocked in 5% milk in PBS with 0.1% Tween-20 (PBS-T) for 2 h at 4° C., then incubated overnight at 4° C. in PBS-T with the appropriate primary antibody ((α-p24 (Cat: 4121; NIH AIDS Reagent Program), α-Nef (Cat: 3689; NIH AIDS Reagent Program), α-gp120 (Cat: 522; NIH AIDS Reagent Program), α-CD81 (Cat: EXOAB-CD81A-1; SBI), α-VPS4 (Cat: sc-32922; Santa Cruz Biotechnology), α-CHMP6 (Cat: sc-67231; Santa Cruz Biotechnology), α-Actin (ab-49900; Abcam), α-CD63 (Cat: EXOAB-CD63A-1; Systems Biosciences), α-SQSTM1/p62 (Cat: 5114; Cell Signaling Technology), α-MAP LC3 α/β (Cat: sc-398822; Santa Crux Biotechnology), α-Alix (Cat: sc-49268; Santa Cruz Biotechnology), α-ATG12 (Cat: sc-271688; Santa Cruz Biotechnology), α-Beclin 1 (Cat: sc-48341; Santa Cruz Biotechnology)). Membranes were washed with PBS-T and incubated for 2 h with the indicated HRP-conjugated secondary antibody at 4° C. HRP luminescence was activated with Clarity Western ECL Substrate (Bio-Rad) and visualized by the Molecular Imager ChemiDoc Touch system (Bio-Rad).
ImageJ software was used to conduct densitometry analysis on the kinase and western blot images. Background measurements were deducted from each lane to account for exposure, followed by normalization of each lane to each respective Actin measurements. […] Percent changes were calculated by subtracting normalized lane measurements from the normalized control lane.
This is potentially due innate differences in the abundance of these mRNAs. […]
For orientation: Immunoblotting shows a protein as a band on a membrane.

Setting [3] is: CBD 10 μM with cART vs cART, 7 days, FIG. 22D lanes 3 vs 5.
Where [4] appears, read: 10 μM every day for 5 days, FIG. 16.
Setting [5] is: CBD 1, 5, 10 μM every day for 5 days.

Molecules are shown by their SMILES.

As to `C=C(C)[C@@H]1CCC(C)=C[C@H]1c1c(O)cc(CCCCC)cc1O` [CBD, 2-[1R-3-methyl-6R-(1-methylethenyl)-2-cyclohexen-1-yl]-5-pentyl-1,3-benzenediol], in assay [1] (setting [3]), the “TAR RNA” value is on record as “signification reduction”, the “env RNA” value is listed as “signification reduction” and the “gag RNA” value is reported as “signification reduction”. In addition, the “altering viral transcripts in neurospheres” value in assay [1] (lower concentrated CBD treatment (5 μM)) is “low efficacy”. Besides, in assay [2] (setting [4]), the “reduction in intracellular Nef (densitometry)” value is 62%, the “reduction in intracellular Pr55 (densitometry)” value was 99% and the “reduction in intracellular p24 (densitometry)” value is given as 76%. Further, in assay [2] (setting [5]), the “intracellular CHMP6 (ESCRT-III)” value is listed as “slight increase” and the “intracellular VPS4” value is given as “slight increase”.
